Experimental data taken from PMC6535718 (Journal of the American Chemical Society, 2019).
Where two headings read alike, the source gives them in different places.

Legend:
P. aeruginosa = conditions: cited from earlier work
P. aeruginosa PAO1 = assay: Effect of analogs on the potency of fluoroquinolone antibiotics, strain PAO1; type: cell-based, Pseudomonas aeruginosa; conditions: PAO1, ciprofloxacin 0.25 μg/mL, 18 h, M63 + 4 μM Fe
[1] = fluoroquinolone at the reported MIC, Figure 9 legend

Compound	reported MIC (P. aeruginosa; [1]) [µg/mL]	reported MIC (P. aeruginosa) [µg/mL]	% survival relative to untreated control, ciprofloxacin only (P. aeruginosa PAO1)
C[C@H]1COc2c(N3CCN(C)CC3)c(F)cc3c(=O)c(C(=O)O)cn1c23 [levofloxacin]	0.5		
O=C(O)c1cn(C2CC2)c2cc(N3CCNCC3)c(F)cc2c1=O [ciprofloxacin]		0.25	approximately 10%
CCn1cc(C(=O)O)c(=O)c2cc(F)c(N3CCNCC3)cc21 [norfloxacin]	0.9		
